The target in assay [1] is T1, B1R receptor of the rat (rB1R) (Rattus norvegicus, UniProt P97583).
T1 construct: expressed in transfected cells; host or cells: CHO K1 cells, stably transfected
T1 sequence (P97583 1-337): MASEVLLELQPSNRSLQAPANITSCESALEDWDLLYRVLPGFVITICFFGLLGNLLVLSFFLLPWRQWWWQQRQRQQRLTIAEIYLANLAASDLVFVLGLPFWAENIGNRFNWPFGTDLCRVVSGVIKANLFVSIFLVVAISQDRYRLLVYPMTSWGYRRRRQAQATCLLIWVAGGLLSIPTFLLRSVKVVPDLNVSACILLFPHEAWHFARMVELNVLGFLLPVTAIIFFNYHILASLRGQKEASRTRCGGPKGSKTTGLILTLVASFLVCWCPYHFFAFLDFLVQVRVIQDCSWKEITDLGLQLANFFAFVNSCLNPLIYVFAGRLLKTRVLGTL
Nature of the assay: FLIPR Ca2+ functional study on bradykinin receptor 1, rB1R cells (CHO K1). The settings on record: 10 μM test substance, CHO K1 cells with rat B1R, agonist Des-Arg9-bradykinin at EC80; for inhibition at 10 µM: read-out: B1R antagonism, rat [10 μM] % inhibition. It counts as cell-based. Summed up: (§1)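 Stably transfected CHO K1 cells loaded with Fluo-4; FLIPR Ca2+ fluorescence (ex 488/em 540 nm, peak counts). Compounds (10 μM, or concentration series for IC50) preincubated 10–20 min, then EC80 agonist added (human: Lys-Des-Arg9-bradykinin; rat: Des-Arg9-bradykinin); % inhibition versus maximum achievable, n=2–3, N≥2.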

For assay [2], the target named is T2, human B1R receptor (hB1R) (Homo sapiens, UniProt P46663).
T2 construct: expressed in transfected cells; host or cells: CHO K1 cells, stably transfected
T2 sequence (P46663 1-353): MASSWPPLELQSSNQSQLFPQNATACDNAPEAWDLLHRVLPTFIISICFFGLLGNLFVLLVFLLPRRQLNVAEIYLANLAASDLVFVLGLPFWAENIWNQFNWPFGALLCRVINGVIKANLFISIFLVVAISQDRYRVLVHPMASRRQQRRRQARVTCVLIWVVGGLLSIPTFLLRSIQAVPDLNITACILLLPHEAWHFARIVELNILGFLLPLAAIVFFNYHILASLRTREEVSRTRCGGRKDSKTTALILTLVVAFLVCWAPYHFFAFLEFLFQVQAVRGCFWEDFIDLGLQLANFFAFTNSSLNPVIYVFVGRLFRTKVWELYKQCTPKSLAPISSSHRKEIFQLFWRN
The assay is described as follows: FLIPR Ca2+ functional study on bradykinin receptor 1, hB1R cells (CHO K1). The settings on record: CHO K1 cells with human B1R, agonist Lys-Des-Arg9-bradykinin at EC80; for inhibition at 10 µM: CHO-K1, 10 μM test substance, read-out: B1R antagonism, human [10 μM] % inhibition. It is filed as cell-based. Summed up: as §1

Experimental findings from patent US8357717B2, “Spiro group-containing amide compounds having bradykinin 1 receptor (B1R) activity” (Gruenenthal GmbH, priority 2009, dated 2013) are described below.

The structures appear in SMILES notation.

As usually defined, the inhibition is the change of the read-out against control, counted positive when it falls. Turning to `COc1cc(C)c(S(=O)(=O)N2CCCc3ccc(CC(=O)N4CCC5(CCC(N6CCC6)CC5)CC4)cc32)c(C)c1` [Compound G-32, 1-(9-(Azetidin-1-yl)-3-azaspiro[5.5]undecan-3-yl)-2-(1-(4-methoxy-2,6-dimethylphenylsulfonyl)-1,2,3,4-tetrahydroquinolin-7-yl)ethanone], the inhibition at 10 µM in assay [1] was found to be 102%; in assay [2] it was 91%.
Taken in the same sequence, the figures for `COc1cc(C)c(S(=O)(=O)N2CCc3sc(C(=O)N4CCC5(CC4)CCN(c4ccncc4)CC5)cc3C2)c(C)c1` [Compound G-14, (5-(4-Methoxy-2,6-dimethylphenylsulfonyl)-4,5,6,7-tetrahydrothieno[3,2-c]pyridin-2-yl)(9-(pyridin-4-yl)-3,9-diazaspiro[5.5]undecan-3-yl)methanone] were 97% and 97%.
Taken in the same sequence, the figures for `COc1cc(C)c(S(=O)(=O)N2CCCc3ccc(CC(=O)N4CCC5(CC4)CCN(C4CCC4)C5)cc32)c(C)c1` [Compound G-10, 1-(2-Cyclobutyl-2,8-diazaspiro[4.5]decan-8-yl)-2-(1-(4-methoxy-2,6-dimethylphenylsulfonyl)-1,2,3,4-tetrahydroquinolin-7-yl)ethanone] were 80% and 97%.
Taken in the same sequence, the figures for `O=C(c1cccc2c1CN(S(=O)(=O)c1cccc(Cl)c1Cl)CC2)N1CCC2(CC1)CCN(c1ccncc1)CC2` [Compound G-38, (2-(2,3-Dichlorophenylsulfonyl)-1,2,3,4-tetrahydroisoquinolin-8-yl)(9-(pyridin-4-yl)-3,9-diazaspiro[5.5]undecan-3-yl)methanone] were 91% and 97%.
With `COc1cc(C)c(S(=O)(=O)N2CCCc3ccc(CC(=O)N4CCC5(CC4)CCN(c4ccncc4)CC5)cc32)c(C)c1` [G_CC-055, 2-[1-[(4-Methoxy-2,6-dimethyl-phenyl)sulfonyl]-1,2,3,4-tetrahydro-quinolin-7-yl]-1-(3-pyridin-4-yl-3,9-diazaspiro[5.5]undecan-9-yl)-ethanone], the “B1R antagonism, rat [10 μM] % inhibition” value in assay [1] is on record as 98%. Also, in assay [2] (10 μM test substance, 10 µM), the “B1R antagonism, human [10 μM] % inhibition” value was 96%.
Consider `COc1cc(C)c(S(=O)(=O)N2CCc3ccc(C(=O)N4CCC5(CC4)CCN(c4ccncc4)CC5)cc3C2)c(C)c1` [Compound G-04, (2-(4-Methoxy-2,6-dimethylphenylsulfonyl)-1,2,3,4-tetrahydroisoquinolin-7-yl)(9-(pyridin-4-yl)-3,9-diazaspiro[5.5]undecan-3-yl)methanone], for which the figures for the inhibition at 10 µM in assay [1] and in assay [2] were 99% and 97%, respectively.
As for `O=C(Cc1ccc2c(c1)N(S(=O)(=O)c1cccc3ccccc13)CCC2)N1CCC2(CCN(c3ccncc3)C2)C1` (stereo not shown) [Compound G-53, 2-(1-(Naphthalin-1-ylsulfonyl)-1,2,3,4-tetrahydroquinolin-7-yl)-1-(7-(pyridin-4-yl)-2,7-diazaspiro[4.4]nonan-2-yl)ethanone], the values for the inhibition at 10 µM in assay [1] and in assay [2] were 105% and 95%, respectively.
Taken in the same sequence, the figures for `O=C(c1ccc(Cl)s1)N1CCc2cccc(C(=O)N3CCC4(CC3)CCN(c3ccncc3)CC4)c2C1` [Compound G-44, (5-Chlorothiophen-2-yl)(8-(9-(pyridin-4-yl)-3,9-diazaspiro[5.5]undecane-3-carbonyl)-3,4-dihydroisoquinolin-2(1H)-yl)methanone] were 62% and 99%.
Taken in the same sequence, the figures for `O=C(/C=C/c1ccccc1Cl)N1CCc2ccc(C(=O)N3CCC4(CC3)CCN(c3ccncc3)CC4)cc2C1` [Compound G-41, 3-(2-Chlorophenyl)-1-(7-(9-(pyridin-4-yl)-3,9-diazaspiro[5.5]undecane-3-carbonyl)-3,4-dihydroisoquinolin-2(1H)-yl)prop-2-en-1-one] were 90% and 99%.
Taken in the same sequence, the figures for `Cc1ccc(Cl)c(S(=O)(=O)N2CCCc3ccc(CC(=O)N4CCC5(CC4)CCN(c4ccncc4)CC5)cc32)c1Cl` [Compound G-66, 2-[1-[(2,6-Dichloro-3-methyl-phenyl)sulfonyl]-1,2,3,4-tetrahydro-quinolin-7-yl]-1-(9-pyridin-4-yl-3,9-diazaspiro[5.5]undecan-3-yl)-ethanone] were 100% and 98%.
Regarding `O=C(c1ccc2c(c1)N(C(=O)c1ccccc1Cl)CCC2)N1CCC2(CC1)CCN(c1ccncc1)CC2` [Compound G-21, (1-(2-Chlorobenzoyl)-1,2,3,4-tetrahydroquinolin-7-yl)(9-(pyridin-4-yl)-3,9-diazaspiro[5.5]undecan-3-yl)methanone], the inhibition at 10 µM is 101% in assay [1] and 95% in assay [2].
For `COc1cc(C)c(S(=O)(=O)N2CCc3onc(C(=O)N4CCC5(CC4)CCN(c4ccncc4)CC5)c3C2)c(C)c1` [Compound G-26, (5-(4-Methoxy-2,6-dimethylphenylsulfonyl)-4,5,6,7-tetrahydroisoxazolo[4,5-c]pyridin-3-yl)(9-(pyridin-4-yl)-3,9-diazaspiro[5.5]undecan-3-yl)methanone], the inhibition at 10 µM in assay [1] worked out at 95%; in assay [2], 99%.
Taken in the same sequence, the figures for `O=C(c1cn2c(n1)CN(C(=O)c1ccc(Cl)s1)CC2)N1CCC2(CC1)CCN(c1ccncc1)CC2` [Compound G-71, [7-(5-Chloro-thiophene-2-carbonyl)-5,6,7,8-tetrahydro-imidazo[1,2-a]pyrazin-2-yl]-(9-pyridin-4-yl-3,9-diazaspiro[5.5]undecan-3-yl)-methanone] were 80% and 91%.
Consider `COc1cc(C)c(S(=O)(=O)N2CCn3cc(C(=O)N4CCC5(CC4)CCN(c4ccncc4)CC5)nc3C2)c(C)c1` [Compound G-40, (7-(4-Methoxy-2,6-dimethylphenylsulfonyl)-5,6,7,8-tetrahydroimidazo[1,2-a]pyrazin-2-yl)(9-(pyridin-4-yl)-3,9-diazaspiro[5.5]undecan-3-yl)methanone], for which the inhibition at 10 µM was determined as 102% in assay [1] and 100% in assay [2].
